# Data: patent US10842845B2, “Oxytocin improves treatment of obstructive sleep apnea” (THE GEORGE WASHINGTON UNIVERSITY, priority 2014, dated 2020)
# What was measured:
# OXT receptors = assay: Calcium imaging in OXT receptor-expressing CHO cells on brainstem slices upon photoactivation of ChR2-containing PVN fibers; type: cell-based, rat; settings: from baseline during first second; CIH/H animals with daily injections of CNO (chronic OXT neuron activation); n=17; CIH/H alone 8.1±0.01%
# Experimental: Visualization of CHO cells expressing OXT receptors and the calcium indicator, as well as ChR2-containing PVN fibers, were performed on a confocal microscope system as previously described (Gamer and Buchel, 2012). To examine activation of OXT receptors upon optogenetic activation of ChR2-expressing PVN fibers in the DMV, CHO cells were pipetted onto the dorsal motor nucleus (DMV) of brain stem slices from animals previously injected with pLenti-Syn-hChR2(H134R)-EYFP-WPRE into the PVN, OXT-sensitive CHO cells within the boundaries of the DMV and in close apposition to ChR2-containing PVN fibers (7.5±0.5 μm) were used for experiments.
# 1-2 weeks after telemetry implantation, DREADDs receptors on PVN OXT neurons were activated daily by intraperitoneal (IP) injection of clozapine-n-oxide (CNO, 1.0 mg/kg). To investigate the effects of CNO on resting BP and HR in both DREADDs-expressing and sham animals, 3 days prior to CIH/H exposure (control days) baseline BP and HR values were recorded for a 20 min period before CNO injection. Animals from each group then received an IP injection of CNO, BP and HR were recorded for 1 hr, and the animals then underwent exposure to air for 8 hr to achieve acclimation to the chambers. […]
# [1] = molecular target: T1, DREADDs receptors on PVN OXT neurons (Homo sapiens, UniProt P20309, A239G/Y149C); assay: MAP over 21 days of CIH/H exposure with daily PVN OXT neuron activation (daily CNO); type: in vivo, Sprague-Dawley rats; settings: n=8
# T1 construct: mCherry (C); host or cells: PVN oxytocin neurons of Sprague-Dawley rats, in vivo, transduced with AAV2-hSyn-DIO-hM3D(Gq)-mCherry and rAAV1-OXT-Cre
# T1 sequence (P20309 whole entry Y149C/A239G, the tested form may be a part): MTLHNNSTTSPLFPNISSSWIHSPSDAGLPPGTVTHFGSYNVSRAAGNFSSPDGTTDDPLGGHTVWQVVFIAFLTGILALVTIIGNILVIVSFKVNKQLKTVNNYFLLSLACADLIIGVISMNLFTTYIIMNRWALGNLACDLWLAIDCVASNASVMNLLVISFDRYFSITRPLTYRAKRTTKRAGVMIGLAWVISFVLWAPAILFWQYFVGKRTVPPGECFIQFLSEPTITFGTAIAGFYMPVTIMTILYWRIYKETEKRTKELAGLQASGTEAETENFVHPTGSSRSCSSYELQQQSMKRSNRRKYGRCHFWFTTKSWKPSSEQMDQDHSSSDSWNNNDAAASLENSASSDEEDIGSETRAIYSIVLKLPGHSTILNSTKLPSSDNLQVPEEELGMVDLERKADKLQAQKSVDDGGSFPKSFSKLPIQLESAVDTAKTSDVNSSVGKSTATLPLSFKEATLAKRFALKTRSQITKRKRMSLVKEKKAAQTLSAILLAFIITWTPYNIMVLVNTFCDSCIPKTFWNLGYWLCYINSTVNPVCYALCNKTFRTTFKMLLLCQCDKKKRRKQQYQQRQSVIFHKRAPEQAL
# Text: To record blood pressure and heart rate, male Sprague-Dawley rats, 3-4 weeks of age, were anesthetized using isoflurane (2-4%) and a HD-XII pressure transmitter was implanted (Data Sciences International, St Paul, Minn., USA) with its cathether inserted into the abdominal aorta to record pressure and EKG leads were attached subcutaneously to obtain EKG recordings and heart rate. All rats with telemetry devices were allowed 7-14 days to recover from transmitter implantation surgery before any measurements were recorded. Blood pressure and heart rate were recorded via radio-frequency signals obtained through the Ponemah data acquisition system (Data Sciences International). Baseline recordings of blood pressure and heart rate were obtained for 3 days prior to CIH/H exposure. Prior to, and during, the 28 day CIH/H exposure period daily baseline recordings of blood pressure and heart rate were recorded.
# Animals were exposed to repetitive cycles of 3 minutes of mild H/H (6% O2+5% CO2+89%, N2) followed by 3 minutes of normoxia (21% O2+79% N2), repeated for 10 times per hour, 8 hr/day, for 3 or 4 weeks. The animals were exposed to CIH/H for 8 hours during light phase and to normal air during the remaining 16 hr. Unexposed animals that were exposed to normal air (21% O2+79% N2), were placed adjacent to the chambers during the exposure period to undergo similar handling, general lab conditions, and background noise as the CIH/H group.
# 1-2 weeks after telemetry implantation, DREADDs receptors on PVN OXT neurons were activated daily by intraperitoneal (IP) injection of clozapine-n-oxide (CNO, 1.0 mg/kg). To investigate the effects of CNO on resting BP and HR in both DREADDs-expressing and sham animals, 3 days prior to CIH/H exposure (control days) baseline BP and HR values were recorded for a 20 min period before CNO injection. Animals from each group then received an IP injection of CNO, BP and HR were recorded for 1 hr, and the animals then underwent exposure to air for 8 hr to achieve acclimation to the chambers. During the 21 days of CIH/H exposure, baseline recordings of BP and HR were obtained before CNO injection, recorded for 1 hr post CNO injection, and for the entire duration of OHM exposure.
# To examine the effects of CNO on and the chronic changes to mean arterial blood pressure (MAP) over the 21 days of OHM exposure, values were recorded before and after CNO injection on control days prior to CIH exposures, and days 1, 3, 6, 9, 12, 15, 18, and 21 of CIH/H. Changes within the DREADDs-expressing animals and the sham animals were statistically analyzed by one-way ANOVA with repeated-measures followed by Bonferroni's multiple comparison test. […]
structure (smiles),measurement,setting,value
"C[N+]1([O-])CCN(C2=Nc3cc(Cl)ccc3Nc3ccccc32)CC1 [CNO, clozapine-n-oxide]",average increase in intracellular calcium in OXT-sensitive CHO cells upon photostimulation of ChR2-containing PVN fibers in the DMV,OXT receptors,23.4±0.03%
same,"MAP in DREADDs-expressing group, Day 12","[1]; Day 12 of CIH/H, sham group 117±4.1 mmHg",105±2.6 mmHg
same,"MAP in DREADDs-expressing group, Day 15","[1]; Day 15 of CIH/H, sham group 118±2.6 mmHg",105±3.1 mmHg
same,"MAP in DREADDs-expressing group, Day 18","[1]; Day 18 of CIH/H, sham group 122±1.1 mmHg",104±2.9 mmHg
same,"MAP in DREADDs-expressing group, Day 21","[1]; Day 21 of CIH/H, 104±2.6 mmHg on control days, sham group 120±0.5 mmHg",103±3.0 mmHg
